Experimental data from ChEMBL document CHEMBL1157522 (Bioorg Med Chem Lett, 2008).
Calls of active or inactive are those of the source. The rule behind the calls is not given here.

Key:
[1] = Metabolic stability in human liver microsomes assessed as half life; format: ADME, Microsome
[2] = species on record: Canis familiaris; assay: (§1) Volume of distribution at steady state in dog; format: ADME, organism-based, Canis lupus familiaris; conditions: in vivo
[3] = Bioavailability in dog at 0.5 mg/kg, iv; format: ADME, organism-based, Canis lupus familiaris; conditions: in vivo
[4] = biological target: Coagulation factor X (Homo sapiens, UniProt P00742); assay: Inhibition of human factor 10a
[5] = biological target: Trypsin (Homo sapiens) (UniProt P07477+P07478+P35030); assay: Inhibition of human trypsin; format: protein assay
[6] = biological target: Coagulation factor IX (Homo sapiens) (UniProt P00740); assay: Inhibition of human factor 9a
[7] = biological target: T1, Coagulation factor VII (Homo sapiens) (UniProt P08709); assay: Inhibition of human factor 7a
T1 sequence (whole entry): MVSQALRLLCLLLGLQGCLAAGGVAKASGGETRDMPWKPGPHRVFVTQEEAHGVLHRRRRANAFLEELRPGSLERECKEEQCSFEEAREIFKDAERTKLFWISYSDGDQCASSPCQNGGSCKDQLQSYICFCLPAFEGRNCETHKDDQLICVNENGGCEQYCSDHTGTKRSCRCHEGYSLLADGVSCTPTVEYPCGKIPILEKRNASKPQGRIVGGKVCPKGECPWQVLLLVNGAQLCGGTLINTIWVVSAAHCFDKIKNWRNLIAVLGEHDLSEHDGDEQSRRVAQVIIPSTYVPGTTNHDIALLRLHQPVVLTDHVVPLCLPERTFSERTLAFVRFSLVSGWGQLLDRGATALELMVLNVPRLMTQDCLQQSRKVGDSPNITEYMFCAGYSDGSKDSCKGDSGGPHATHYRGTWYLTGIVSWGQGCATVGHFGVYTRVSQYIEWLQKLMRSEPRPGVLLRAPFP

[8] = biological target: Plasminogen (Homo sapiens) (UniProt P00747); assay: Inhibition of human plasmin
[9] = species on record: Homo sapiens; assay: Inhibition of human chymotrypsin
[10] = biological target: Tissue-type plasminogen activator (Homo sapiens) (UniProt P00750); assay: Inhibition of human tPA
[11] = biological target: Plasma kallikrein (Homo sapiens) (UniProt P03952); assay: Inhibition of human plasma kallikrein; format: cell-free
[12] = biological target: Vitamin K-dependent protein C (Homo sapiens) (UniProt P04070); assay: Inhibition of human activated protein C
[13] = Clearance in dog at 0.5 mg/kg, iv; format: ADME, organism-based, Canis lupus familiaris; parameters: dose 0.5 mg/kg, route intravenous; conditions: in vivo
[14] = as §1; format: ADME, organism-based, Canis lupus familiaris; conditions: in vivo, read-out: Vdss
[15] = Half life in dog at 0.2 mg/kg, po; format: ADME, organism-based, Canis lupus familiaris; parameters: dose 0.2 mg/kg, route oral; conditions: in vivo

Tissue-type plasminogen activator (Homo sapiens), sequence (P00750 36-562 limits assumed): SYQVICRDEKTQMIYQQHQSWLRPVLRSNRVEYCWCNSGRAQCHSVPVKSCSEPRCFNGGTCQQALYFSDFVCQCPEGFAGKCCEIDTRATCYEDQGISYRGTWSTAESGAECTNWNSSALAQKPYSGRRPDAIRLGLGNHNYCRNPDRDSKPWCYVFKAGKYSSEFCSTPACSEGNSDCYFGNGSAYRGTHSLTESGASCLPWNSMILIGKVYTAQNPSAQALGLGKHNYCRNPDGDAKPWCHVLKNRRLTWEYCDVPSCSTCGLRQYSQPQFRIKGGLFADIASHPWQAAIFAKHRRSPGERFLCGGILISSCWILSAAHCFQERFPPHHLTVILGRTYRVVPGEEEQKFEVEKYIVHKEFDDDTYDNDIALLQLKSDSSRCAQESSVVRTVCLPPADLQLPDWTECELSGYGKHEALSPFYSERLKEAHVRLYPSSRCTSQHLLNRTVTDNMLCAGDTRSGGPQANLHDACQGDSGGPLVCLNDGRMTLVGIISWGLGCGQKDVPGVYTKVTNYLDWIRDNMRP
Vitamin K-dependent protein C (Homo sapiens), sequence (P04070 43-197 limits assumed): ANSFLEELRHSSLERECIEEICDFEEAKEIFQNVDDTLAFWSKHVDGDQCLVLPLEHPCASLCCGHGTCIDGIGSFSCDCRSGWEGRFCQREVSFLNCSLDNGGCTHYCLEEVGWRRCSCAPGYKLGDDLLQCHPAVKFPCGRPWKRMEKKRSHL
Vitamin K-dependent protein C (Homo sapiens), sequence (P04070 212-461 limits assumed): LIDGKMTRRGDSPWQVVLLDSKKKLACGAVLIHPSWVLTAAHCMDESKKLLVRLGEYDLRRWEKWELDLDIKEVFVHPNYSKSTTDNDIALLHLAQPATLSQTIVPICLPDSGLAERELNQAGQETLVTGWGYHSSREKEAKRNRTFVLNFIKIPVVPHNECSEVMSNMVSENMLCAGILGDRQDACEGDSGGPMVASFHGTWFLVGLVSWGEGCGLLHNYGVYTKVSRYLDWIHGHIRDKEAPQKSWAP
Plasma kallikrein (Homo sapiens), sequence (P03952 20-390 limits assumed): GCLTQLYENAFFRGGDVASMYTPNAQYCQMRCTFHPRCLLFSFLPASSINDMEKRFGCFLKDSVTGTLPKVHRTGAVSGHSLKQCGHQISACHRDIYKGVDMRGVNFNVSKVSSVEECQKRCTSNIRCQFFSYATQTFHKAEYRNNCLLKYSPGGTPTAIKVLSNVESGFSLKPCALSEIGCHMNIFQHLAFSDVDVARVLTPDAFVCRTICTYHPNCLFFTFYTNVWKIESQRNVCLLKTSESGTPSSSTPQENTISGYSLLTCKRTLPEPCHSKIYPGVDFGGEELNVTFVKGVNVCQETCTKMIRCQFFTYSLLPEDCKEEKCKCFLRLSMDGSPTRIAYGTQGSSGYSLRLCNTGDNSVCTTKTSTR
Plasma kallikrein (Homo sapiens), sequence (P03952 391-638 limits assumed): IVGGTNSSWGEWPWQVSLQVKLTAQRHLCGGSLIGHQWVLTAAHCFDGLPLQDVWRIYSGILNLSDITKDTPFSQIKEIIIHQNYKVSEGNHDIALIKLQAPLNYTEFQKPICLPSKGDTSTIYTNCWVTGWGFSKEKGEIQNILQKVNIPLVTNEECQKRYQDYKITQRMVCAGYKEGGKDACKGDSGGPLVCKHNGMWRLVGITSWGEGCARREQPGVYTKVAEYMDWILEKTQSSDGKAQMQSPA
Plasminogen (Homo sapiens), sequence (P00747 97-580 limits assumed): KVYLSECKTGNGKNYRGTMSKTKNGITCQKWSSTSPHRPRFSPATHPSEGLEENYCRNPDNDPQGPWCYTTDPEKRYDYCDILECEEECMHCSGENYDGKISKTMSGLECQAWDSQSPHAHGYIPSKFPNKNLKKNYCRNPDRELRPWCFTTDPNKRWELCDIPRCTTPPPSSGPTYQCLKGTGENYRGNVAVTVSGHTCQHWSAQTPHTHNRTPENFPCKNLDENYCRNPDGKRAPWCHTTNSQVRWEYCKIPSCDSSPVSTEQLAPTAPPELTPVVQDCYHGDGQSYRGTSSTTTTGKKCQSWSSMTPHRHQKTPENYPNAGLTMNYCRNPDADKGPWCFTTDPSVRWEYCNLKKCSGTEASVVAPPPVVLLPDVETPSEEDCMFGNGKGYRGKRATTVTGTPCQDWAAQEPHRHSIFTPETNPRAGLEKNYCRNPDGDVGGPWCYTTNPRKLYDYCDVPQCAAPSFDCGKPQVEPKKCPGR
Plasminogen (Homo sapiens), sequence (P00747 581-810 limits assumed): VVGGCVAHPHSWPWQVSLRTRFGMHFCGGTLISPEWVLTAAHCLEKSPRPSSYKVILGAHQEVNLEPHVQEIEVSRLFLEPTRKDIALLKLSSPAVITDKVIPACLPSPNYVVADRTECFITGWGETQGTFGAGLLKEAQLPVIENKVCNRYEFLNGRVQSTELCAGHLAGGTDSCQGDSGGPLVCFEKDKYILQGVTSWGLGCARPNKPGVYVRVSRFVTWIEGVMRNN
Coagulation factor IX (Homo sapiens), sequence (P00740 47-191 limits assumed): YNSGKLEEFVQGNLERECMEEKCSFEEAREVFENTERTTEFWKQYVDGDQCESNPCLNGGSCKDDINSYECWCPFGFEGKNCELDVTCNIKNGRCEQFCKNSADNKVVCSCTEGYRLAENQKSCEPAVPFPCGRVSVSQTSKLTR
Coagulation factor IX (Homo sapiens), sequence (P00740 227-461 limits assumed): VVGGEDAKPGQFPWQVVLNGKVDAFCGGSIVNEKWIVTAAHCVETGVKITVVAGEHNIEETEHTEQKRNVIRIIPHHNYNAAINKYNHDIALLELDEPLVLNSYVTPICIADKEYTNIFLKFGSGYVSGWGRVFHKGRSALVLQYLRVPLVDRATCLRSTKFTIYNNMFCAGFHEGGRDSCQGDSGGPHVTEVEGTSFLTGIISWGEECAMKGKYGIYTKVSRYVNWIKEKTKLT
Coagulation factor X, sequence (P00742 41-179 limits assumed): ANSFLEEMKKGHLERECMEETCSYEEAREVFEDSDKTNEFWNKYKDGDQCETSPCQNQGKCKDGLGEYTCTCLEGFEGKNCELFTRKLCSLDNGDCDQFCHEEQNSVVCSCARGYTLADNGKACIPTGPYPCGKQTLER
Coagulation factor X, sequence (P00742 235-488 limits assumed): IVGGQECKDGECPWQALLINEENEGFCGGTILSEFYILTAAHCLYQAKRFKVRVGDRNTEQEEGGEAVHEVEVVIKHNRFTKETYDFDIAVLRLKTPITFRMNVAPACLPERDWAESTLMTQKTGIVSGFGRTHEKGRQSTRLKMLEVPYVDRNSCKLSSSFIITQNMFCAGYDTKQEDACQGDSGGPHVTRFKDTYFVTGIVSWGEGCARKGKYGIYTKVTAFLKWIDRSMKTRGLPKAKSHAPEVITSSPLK

half-life [1] [h] | Vdss [2] [L/kg] | bioavailability [3] [%] | Ki [4] [nM] | Activity [5] | Activity [6] | Activity [7] | Activity [8] | Activity [9] | Activity [10] | Activity [11] | Activity [12] | clearance [13] [mL/min/kg] | Vd [14] [L/kg] | half-life [15] [h] | SMILES
0.6 | 5.3 | 84 | – | – | – | – | – | – | – | – | – | – | – | – | CN(C)Cc1nccn1-c1ccc(NC(=O)c2cc(C(F)(F)F)nn2-c2ccc3onc(N)c3c2)c(F)c1 [RAZAXABAN]
– | – | – | 3.3 | inactive | inactive | inactive | inactive | inactive | inactive | inactive | inactive | – | – | – | COc1ccc(-n2nc(C(F)(F)F)c3c2C(=O)N(c2ccc(C4(C(N)=O)CC4)cc2)CC3)cc1
– | – | – | 0.14 | inactive | inactive | inactive | inactive | inactive | inactive | inactive | inactive | – | – | – | COc1ccc(-n2nc(C(F)(F)F)c3c2C(=O)N(c2ccc(C4(CN5CCC(O)CC5)CC4)cc2)CC3)cc1
– | – | – | 2.4 | inactive | inactive | inactive | inactive | inactive | inactive | inactive | inactive | – | – | – | COc1ccc(-n2nc(C(F)(F)F)c3c2C(=O)N(c2ccc(C4(CO)CC4)cc2)CC3)cc1
– | – | – | 30 | inactive | inactive | inactive | inactive | inactive | inactive | inactive | inactive | – | – | – | COc1ccc(-n2nc(C(F)(F)F)c3c2C(=O)N(c2ccc(C4(C(=O)NC5CCCC5)CC4)cc2)CC3)cc1
1.83 | – | 53 | – | – | inactive | inactive | inactive | inactive | inactive | inactive | inactive | 20 | 15 | 12 | COc1ccc(-n2nc(C(F)(F)F)c3c2C(=O)N(c2ccc(C4(CN(C)C)CC4)cc2)CC3)cc1
– | – | – | 5.8 | inactive | inactive | inactive | inactive | inactive | inactive | inactive | inactive | – | – | – | COc1ccc(-n2nc(C(F)(F)F)c3c2C(=O)N(c2ccc(C4(C(=O)N(C)C)CC4)cc2)CC3)cc1
– | – | – | 1.8 | inactive | inactive | inactive | inactive | inactive | inactive | inactive | inactive | – | – | – | COc1ccc(-n2nc(C(F)(F)F)c3c2C(=O)N(c2ccc(C4(C#N)CC4)cc2)CC3)cc1
